A word on the IC50: it is the concentration that gives 50% inhibition. Low values mean higher potency, high ones lower potency.

SMILES strings stand for the structures.

For one assay, the system named is microglia. Nature of the assay: cytokine production of microglia upon LPS stimulation (qPCR, ELISA), with Nrf2 siRNA. Format: cell-based. To be noted: for up-regulation of proinflammatory cytokine gene expression by LPS stimulation: qPCR and ELISA, FIGS. 2A, 2B; for up-regulation of proinflammatory cytokine gene expression by LPS stimulation / induction of expression of several chemokines and iNOS mRNA: LPS stimulation; for induction of expression of several chemokines and iNOS mRNA: FIG. 2A. The procedure: Total RNA was extracted with RNeasy kit (Qiagen) followed by cDNA synthesis using iScript (Bio-Rad). Quantitative PCRs were carried out with SYBR green ExTaq (TaKaRa). Primers for genes were designed by using PrimerBank (Wang et al., 2012).
Studies were made on whether the compounds 1 and 2 would suppress cytokine production of microglia.
In the cells treated with Nrf2 siRNA, the suppression of cytokine production was not observed. *P<0.05.
Background: Quantitative PCR measures a nucleic acid by following its amplification.

The subject of the next assay is microglial cells BV-2. The assay can be described thus: Western blotting of BV-2 cells treated with compound. Format: cell-based. The following applies: time-dependently and dose-dependently, FIG. 1A. The protocol: (§1) Microglial cell line BV-2 was maintained in high glucose Dulbecco's modified Eagle's medium (DMEM) (Nacalai Tesque) supplemented with 10% fetal bovine serum (Nichirei Bioscienses), 100 U/mL penicillin, and 100 μg/mL streptomycine. Primary hippocampal and cortical neuronal cultures were prepared from embryonic day 18 mice and maintained in Neurobasal medium (Life Technologies) supplemented with 2% B27 supplement, 100 U/mL, penicillin, 100 μg/mL streptomycin, and 0.5 mM L-glutamine. Dopaminergic neuronal cultures were prepared from ventral midbrain of embryonic day 13 mice and maintained in Neurobasal medium (Life Technologies) supplemented with 10% fetal bovine serum, 2% B27 supplement, 10 ng/mL GDNF, 100 U/mL penicillin, and 100 μg/mL streptomycin. For depletion of glial cells, 5 μM cytosine β-D-arabinofuranoside, 10 μM 5-fluorouracil, and 10 μM uridine (all from Sigma-Aldrich) were added at 2-day culture. Mixed glial cultures were obtained from new born murine pups (P1 to P4) and maintained in T75 or T175 flask. Media were changed every 3-4 days until the cells get confluent. Microglia were obtained either by shaking vigorously or Cd11b-positive selection (Invitrogen). For co-culture experiments, murine glial cell cultures were prepared from MGE (Medial Ganglionic Eminence) of embryonic day 13 and cultured in PLL-coated dish. Cultures were passaged twice with trypsin, and used for co-cultured assay with iPSC-derived neurons. 1039A1 iPS cells were established and maintained as described previously (Nakagawa et al., Sci Rep 4, 3594, 2014). […]
Total protein was extracted from cell culture samples using RIPA buffer (Wako) containing protease inhibitor cocktail (Nacalai Tesque) and phosphatase inhibitor cocktail (Nacalai Tesque). After 15 minutes of centrifugation at 15,000 rpm at 4° C., supernatants were collected and protein concentrations were measured using a Pierce 660 nm Protein Assay Kit (Thermo Scientific). […]

For assay [1], the system named is Nrf2 in Cd11b-positive microglial cells. The assay can be described thus: Nrf2 immunocytochemistry in glial cells (nuclei of Cd11b-positive cells), with p21 siRNA. The assay is classed as cell-based, murine. To be noted: for Nrf2 expression: data not shown; for expression of Nrf2 in Cd11b-positive microglial cells: glial cells, FIGS. 1B and 1C. The protocol: Cells were plated in 96-well purecoat amine coated plates and treated as desired for each specific experiment. After immunolabeling was complete, automated image acquisition (with twenty-fold magnification of objective lens, 2×2 CCD binning, twenty-five fields per well) and analysis was performed using Opera Phenix (manufactured by PerkinElmer Co., Ltd.) equipped with Harmony software. Image acquisition was performed using a fluorescence microscope (BZ-9000, manufactured by Keyence corporation) or a confocal microscope (SP-8, manufactured by Leica) as well.
Microglial cell line BV-2 was maintained in high glucose Dulbecco's modified Eagle's medium (DMEM) (Nacalai Tesque) supplemented with 10% fetal bovine serum (Nichirei Bioscienses), 100 U/mL penicillin, and 100 μg/mL streptomycine. Primary hippocampal and cortical neuronal cultures were prepared from embryonic day 18 mice and maintained in Neurobasal medium (Life Technologies) supplemented with 2% B27 supplement, 100 U/mL, penicillin, 100 μg/mL streptomycin, and 0.5 mM L-glutamine. Dopaminergic neuronal cultures were prepared from ventral midbrain of embryonic day 13 mice and maintained in Neurobasal medium (Life Technologies) supplemented with 10% fetal bovine serum, 2% B27 supplement, 10 ng/mL GDNF, 100 U/mL penicillin, and 100 μg/mL streptomycin. For depletion of glial cells, 5 μM cytosine β-D-arabinofuranoside, 10 μM 5-fluorouracil, and 10 μM uridine (all from Sigma-Aldrich) were added at 2-day culture. Mixed glial cultures were obtained from new born murine pups (P1 to P4) and maintained in T75 or T175 flask. Media were changed every 3-4 days until the cells get confluent. Microglia were obtained either by shaking vigorously or Cd11b-positive selection (Invitrogen). For co-culture experiments, murine glial cell cultures were prepared from MGE (Medial Ganglionic Eminence) of embryonic day 13 and cultured in PLL-coated dish. Cultures were passaged twice with trypsin, and used for co-cultured assay with iPSC-derived neurons. 1039A1 iPS cells were established and maintained as described previously (Nakagawa et al., Sci Rep 4, 3594, 2014). Induction of dopaminergic precursor cells was performed as described previously (Doi et al., Stem Cell Reports 2, 337-350, 2014, Kikuchi et al., Nature 548, 592-596, 2017). Briefly, hiPS cells 1039A1 were plated on Laminin511, and differentiated in GMEM medium containing 8% KSR, Y27632 (Wako), A-83-01 (Wako), LDN193178 (STEMGENT). Purmorphamine (Wako), FGF8 (Wako, from day 1 to day 7), and CHIR99021 (Wako, from day 3 to day 12) were added. After cell sorting of Corin+ cells, cells were replated onto low attachment 96-well plates for neurosphere cultures and maintained in neurobasal medium with B27 supplement, 2 mM L-glutamine (Invitrogen), 10 ng/mL GDNF, 200 μM ascorbic acid, 20 ng/mL BDNF (all from Wako), and 400 μM dbcAMP (Sigma-Aldrich) for further 2 weeks. To avoid apoptosis, 30 μM of Y27632 (Wako) was added at the initial plating.
Cells were fixed with 4% paraformaldehyde for 10 minutes, followed by permealization with 0.2% TritonX-100 for 10 minutes. After washing in PBS, cells were blocked in 5% normal donkey serum (Jackson ImmunoResearch Laboratories)/1% BSA (SIGMA A7906)/PBS and then labeled with the primary antibodies. After washing with PBS, primary antibodies were labeled with the corresponding fluorescence-conjugated secondary antibodies. Hoechst 33342 was used to detect nuclei.
Cells were visualized with anti-Nrf2 (pseudo-color), Cd11b (magenta, microglia), and GFAP (green, astrocyte) antibodies. Scale bar=25 μm.
Glial cells were treated with the compounds 1 and 2 for indicated periods and at indicated concentrations.

A further assay deals with DYRK1A (Homo sapiens, UniProt Q13627). The assay can be described thus: in vitro kinase activity assay against DYRK1A. The assay is classed as biochemical. The procedure: In Vitro Enzyme Activity Assay
The in vitro kinase activity assay was performed as described previously (Ogawa et al., Nat Commun 1, 86, 2010).

The subject of assay [2] is hiPSC-derived dopaminergic neuron progenitors. Nature of the assay: co-culture of hiPSC-derived dopaminergic neuron progenitors with murine glia under H2O2 oxidative stress. The assay is classed as cell-based, human. The following applies: H2O2 treatment. The procedure:
as §1, with “(Invitrogen).” for “(Invitrogen). For co-culture experiments, murine glial cell cultures were prepared from MGE (Medial Ganglionic Eminence) of embryonic day 13 and cultured in PLL-coated dish. Cultures were passaged twice with trypsin, and used for co-cultured assay with iPSC-derived neurons. 1039A1 iPS cells were established and maintained as described previously (Nakagawa et al., Sci Rep 4, 3594, 2014).”
The neuronal survival was evaluated according to the number of human nuclei by immunostaining (FIGS. 5A and 5B).
Dopaminergic markers of Nurr1 and TH were evaluated by qPCR (FIG. 5C). […]

Assay [3] concerns iPSC-derived DA neurons transplanted in striatum. Nature of the assay: transplantation of hiPSC-derived DA neurons into murine striatum. Format: in vivo, SCID mice. The following applies: four weeks after the transplantation; mice; administered from one hour before surgery for four days. The procedure:
(§2) C57black/6J mice, 8 to 9-week old, were intraperitoneally injected with LPS (O55:B5) (manufactured by Sigma, L2880) at 1 mg/kg once daily for four days. hiPSC-derived dopaminergic (DA) progenitors were transplanted in striatum of 4-week-old SCID mice. Drug treatment was performed one hour before LPS-injection or iPSC transplantation.
The compound 1 was initially dissolved in DMSO at a concentration of 100 mg/mL and diluted to desired concentration with 10% Tween 80 (polysorbate 80 (HX2), manufactured by HOF Corporation) in physiological saline solution, and subcutaneously delivered in a volume of 0.05 mL/kg. The compound 2 was suspended in 0.5% carboxymethylcellulose (Nacalai Tesque) and orally administered in a volume of 0.1 mL/kg at desired concentration. Drug-treated animals were anesthetized with isofluorane for blood sampling and subsequently perfused with physiological saline solution. […] Concentration of target compounds or dopamine in serum and brain homogenates were analyzed by LC/MS using an Agilent 6420 Q-TOF mass spectrometer with an Agilent 1290 Nano-flow HPLC system (Agilent Technologies). […]
Arrows indicate iPSC-derived cells that are co-labeled by TH or Nurr1 (both are dopaminergic markers). […] The transplanted DA neurons were identified by hNuclei staining and survived iPSC-derived DA neurons were quantified with co-staining of TH and Nurr1 dopaminergic markers. […]

The subject of a further assay is mice injected with LPS. Nature of the assay: LPS-induced neuro-inflammation and neurodegeneration in mice. The assay is classed as in vivo, C57black/6J mice. The procedure:
as §2
The compound 1 was initially dissolved in DMSO at a concentration of 100 mg/mL and diluted to desired concentration with 10% Tween 80 (polysorbate 80 (HX2), manufactured by HOF Corporation) in physiological saline solution, and subcutaneously delivered in a volume of 0.05 mL/kg. The compound 2 was suspended in 0.5% carboxymethylcellulose (Nacalai Tesque) and orally administered in a volume of 0.1 mL/kg at desired concentration. Drug-treated animals were anesthetized with isofluorane for blood sampling and subsequently perfused with physiological saline solution. Brain homogenates were prepared using the Beads Crusher μT-12 system (TAITEC) in five-volume of physiological saline solution. Concentration of target compounds or dopamine in serum and brain homogenates were analyzed by LC/MS using an Agilent 6420 Q-TOF mass spectrometer with an Agilent 1290 Nano-flow HPLC system (Agilent Technologies). For measurement of dopamine, 50 mg/mL ascorbic acid was added to avoid oxidization.
Adult mouse brains were perfused with PBS then fixed in 4% paraformaldehyde, and 40-μm sections were cut with a vibratome (Leica) or 20-μm sections with a cryostat (Leica) after equilibrating in 30% sucrose/PBS. After antigen retrieval using HistoOne (Nacalai Tesque), tissues were stained with indicated antibodies.
LPS was intraperitoneally administered to mice to induce neuro-inflammation. Drug (the compound 2) was administered one hour before the LPS injection to the mice. The drug was orally administered at a indicated dose once daily.
Glial activation and cytokine production were evaluated at day 1 after the administration. Degeneration of dopaminergic nerves were evaluated at day 7 and day 14 (FIGS. 4B and 4C). […]
Animals, N=5 to 6, were analyzed regarding each condition. […]

As to `c1cncc(-c2ccc3[nH]ncc3c2)c1` [Compound 1], the “up-regulation of proinflammatory cytokine gene expression by LPS stimulation” value in the assay with microglia is listed as “suppressed effectively”. In addition, in the assay on microglia (qPCR), the “induction of expression of several chemokines and iNOS mRNA” value is recorded as “also suppressed”. For the same compound, the “suppression of cytokine production” value in the assay with microglia (cells treated with Nrf2 siRNA, qPCR, FIG. 2C) was “not observed”. Also, in the assay on microglial cells BV-2, the “Nrf2 (Western blotting)” value is “up-regulated”, the “cyclin D1 (Western blotting)” value was “up-regulated” and the “p21 (Western blotting)” value was “up-regulated”. In addition, in assay [1] (control siRNA-treated cells), the Nrf2 expression entry is reported as “increased”. The “expression of Nrf2 in Cd11b-positive microglial cells” value in assay [1] is given as “induced”. The Nrf2 expression entry in assay [1] (p21 siRNA-treated cells) is “did not increase”. This compound also displayed an IC50 against DYRK1A of 77 nM.
`CNC1/C(=C/C(C)=O)Sc2ccc3occc3c21` (stereo not shown) [Compound 2]: the “up-regulation of proinflammatory cytokine gene expression by LPS stimulation” value with microglia is listed as “suppressed effectively”. In addition, in the assay with microglia (qPCR), the “induction of expression of several chemokines and iNOS mRNA” value was “also suppressed”. Further, the “survival of DA neurons” value in assay [2] (co-culture with glia, FIGS. 5A to 5C) is “increased depending on the added amount”. For the same compound, the protection of neurons result in assay [2] (without glia) is given as “did not occur”. For the same compound, the Nrf2 expression entry in assay [1] (control siRNA-treated cells) is “increased”; in assay [1] (p21 siRNA-treated cells), “did not increase”. Also, the “expression of Nrf2 in Cd11b-positive microglial cells” value in assay [1] is on record as “induced”. For the same compound, inhibition against DYRK1A was half-maximal at 32.9 nM (IC50). In addition, the “survival rate of iPSC-derived DA neurons” value in assay [3] is “improves”. For the same compound, the “loss of dopaminergic neurons (TH-positive cells in SNpc)” value in the assay on mice injected with LPS (LPS-injected mice, day 7 and day 14, FIGS. 4B and 4C) is on record as “rescued”. Further, in the assay with mice injected with LPS (qPCR and ELISA, striatum tissues at day 1, oral once daily, FIGS. 4E and 4F), the cytokine production entry was “suppressed”. For the same compound, the glial activation entry in the assay with mice injected with LPS (qPCR on striatum tissues at day 1 from last LPS injection, oral once daily, FIG. 4D) is recorded as “suppressed”.

For the origin of these results see patent US12605368B2, “Suppression of neuroinflammation and composition and method therefor” (Kyoto University, priority 2020, dated 2026).
